Laboratory results: patent publication US6906175B2, “Production of adenine nucleotide translocator (ANT), novel ANT ligands and screening assays therefor” (priority 1998, dated 2005)

What was measured:
[1] = molecular target: T1, bovine mitochondria (ANT) (Bos taurus, UniProt P02722); assay: 125I-compound 24 competition binding (Tube Assay), beef heart mitochondria; details: for competitive inhibition of 125I-compound 24 binding (in words): FIGS. 11, 13, 16
T1 construct: from tissue; host or cells: bovine heart mitochondria
T1 sequence (P02722 2-298 limits assumed): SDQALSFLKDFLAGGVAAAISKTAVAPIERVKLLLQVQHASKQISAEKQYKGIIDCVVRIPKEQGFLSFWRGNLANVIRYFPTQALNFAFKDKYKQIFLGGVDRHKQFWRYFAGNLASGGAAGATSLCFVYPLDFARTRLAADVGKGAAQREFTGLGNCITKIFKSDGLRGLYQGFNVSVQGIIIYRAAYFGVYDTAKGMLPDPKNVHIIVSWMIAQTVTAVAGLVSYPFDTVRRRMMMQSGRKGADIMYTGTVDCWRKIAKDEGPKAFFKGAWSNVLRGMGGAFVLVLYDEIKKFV
Description: Bovine mitochondria were prepared as follows: Essentially all of the fat and cholesterol […] was removed from two bovine hearts which were then cut into 1-inch cubes. The cubes were ground in a meat grinder using the fine setting. Three hundred (300) […] portions of the ground heart were weighed out and, to each was added 400 ml of Isolation Buffer (IB; 250 mM sucrose, 1 mM sodium succinate, 0.2 mM K^+EDTA, 10 mM Tris-base, pH 7.8). (All buffers were filter sterilized, and column buffers were degassed, and, unless otherwise noted, all steps were carried out at 0 to 4° C. on ice or in pre-cooled rotors and centrifuges.) The preparations were mixed in a blender two times for 15 seconds on high setting and, in between and after blends, the pH was adjusted to 7.8 with 2M Tris-base. The homogenate was centrifuged for 20 minutes at 1,200×g, and the supernatant was poured through two layers of cheese cloth and adjusted to pH 7.8 with 2M Tris-base. The supernatant was then centrifuged for 30 minutes at […]. The supernatant was decanted, and the buff-colored outer pellet was dislodged with about 10 ml of IB and discarded. The brown inner pellet (heavy mitochondria) was resuspended in IB (about 10 ml per pellet). The pellets were homogenized in a glass-teflon homogenizer (2 passes at high drill speed). Samples were combined and centrifuged for 30 minutes at 11,000×g. The supernatant was decanted, and the pellets were resuspended in 60 ml of IB per 900 gm of ground heart. This centrifugation step was repeated and the pellets were finally resuspended in IB (60 ml per 900 gm of ground heart). One kilogram of beef heart typically yields about one (1) gram of mitochondria
The mitochondrial preparations were divided into aliquots (typically, 50μl for T. ni mitochondria or 20 μl for bovine mitochondria) and then either used directly in assays or flash frozen and stored at −80° C. The total protein content in the mitochondrial preparations was determined using the enhanced protocol (30 minutes at 60° C.; see http://www.ruf.rice.edu/˜bioslabs/methods/protein/BCA.html) of the bicinchoninic acid (BCA) assay (available in kit form from Pierce, Rockford, Ill.).
In the “Tube Assay,” mitochondria (from about 1 to 10 μg of total protein) were resuspended in 100 μl of Tris-KCl buffer with 0.1% BSA, pH 7.4. ^125I-labeled compound 24 (Example 11) was added to a final concentration of 0.5 nM. When used, competitors were added at these concentration ranges: unlabeled atractyloside or compound 24 final concentration from 5 nM to 10 μM; unlabeled ADP (a lower affinity competitor) was added at a final concentration of 500 nM to 1 mM.
The reaction mixes were incubated on ice for 60 minutes and then pelleted by centrifugation (approximately 16,000×g) for 11 minutes at 4° C.
Unbound ^125I-compound 24 was removed by aspiration. The pellets were contact-washed with Tris-KCl buffer, pH 7.4, and recentrifuged. The resultant pellets were aspirated and the radioactivity (dpm) in each was determined by gamma counting.

[2] = molecular target: T2, T. ni/huANT3 mitochondria (Homo sapiens, UniProt P12236); assay: 125I-compound 24 competition binding (Tube Assay), mitochondria from T. ni cells expressing huANT3; details: mitochondria from T. ni cells expressing huANT3; FIGS. 12, 14, 15
T2 construct: expressed in transfected cells; host or cells: Trichoplusia ni cells infected with recombinant baculovirus (cells prepared by PharMingen); isolated mitochondria
T2 sequence (P12236 1-298): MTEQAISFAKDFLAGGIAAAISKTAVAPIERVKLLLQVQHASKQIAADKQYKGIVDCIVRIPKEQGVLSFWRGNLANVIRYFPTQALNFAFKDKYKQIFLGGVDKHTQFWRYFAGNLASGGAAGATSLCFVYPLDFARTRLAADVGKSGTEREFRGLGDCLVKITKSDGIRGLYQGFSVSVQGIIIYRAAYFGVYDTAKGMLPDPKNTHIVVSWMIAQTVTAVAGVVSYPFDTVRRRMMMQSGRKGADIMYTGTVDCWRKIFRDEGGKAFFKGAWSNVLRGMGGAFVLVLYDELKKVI
Description: Atractyloside analogs (Example 6; Table 1; see also Examples 7-9) were also used in pseudo-homologous competition binding assays using T. ni/huANT3 mitochondria or bovine mitochondria. Mitochondria from noninfected T. ni cells, or T. ni cells infected with a baculovirus expressing huANT3 (see Example 3) were prepared as follows: […] cells were prepared by a subcontractor (PharMingen, San Diego, Calif.) as portions of about 250 mg of cells per tube. Each portion was suspended in 1 ml of MSB with protease inhibitors (leupeptin, final concentration 10 ug/ml; pepstatin, final concentration 10 ug/ml; aprotinin, final concentration, 2 ug/ml; phenylmethylsulfonyl fluoride, [PMSF], final concentration, 100 μM; all from Sigma Chemical Co., St. Louis, Mo.). The resuspended cell suspensions were frozen and thawed twice, then homogenized using a rotating teflon-coated probe and a close-fitting glass container (10 passes). The cellular homogenate was centrifuged (3,700 rpm, approximately 1,500×g) at 4° C. for 5 minutes; this supernatant from the first spin was saved. The pellet was washed with about 500 μl of MSB with protease inhibitors, centrifuged (3,800 rpm, approximately 1,600×g) at 4° C. for 5 minutes, and supernatant from this spin was combined with the supernatant from the first spin. […]
The mitochondrial preparations were divided into aliquots (typically, 50μl for T. ni mitochondria or 20 μl for bovine mitochondria) and then either used directly in assays or flash frozen and stored at −80° C. The total protein content in the mitochondrial preparations was determined using the enhanced protocol (30 minutes at 60° C.; see http://www.ruf.rice.edu/˜bioslabs/methods/protein/BCA.html) of the bicinchoninic acid (BCA) assay (available in kit form from Pierce, Rockford, Ill.). […]
Unbound ^125I-compound 24 was removed by aspiration. […] The resultant pellets were aspirated and the radioactivity (dpm) in each was determined by gamma counting.

His-tagged huANT3 = molecular target: T3, His-tagged huANT3 (Homo sapiens, UniProt P12236); assay: 125I-compound 24 competition binding to recombinant His-tagged huANT3 immobilized on Ni beads; parameters: made in house; host or cells: baculovirus-infected Trichoplusia ni cells; mitochondria solubilized and captured on Ni-agarose beads (Qiagen); details: His-tagged huANT3 on Ni-agarose beads, 1 hour at 4° C.; FIG. 19
T3 sequence (P12236 1-298): T2 sequence (P12236 1-298)
Description: Competitive binding assays were also performed using recombinant His-tagged huANT3 (see Example 3) immobilized on Ni beads (FIG. 19) instead of mitochondria. To prepare the bead-immobilized huANT3, mitochondria from T. ni cells infected with a baculovirus expressing huANT3 (see Example 3) were solubilized with 0.5% O-glucopyranoside in the presence of 0.5 nM ^125I-compound 24 Ni-agarose beads (Qiagen, Hilden, Germany), and various concentrations of ATR or BKA as unlabeled competitors. After 1 hour at 4° C., the beads were washed and radioactivity that remained associated with the beads was counted.

Structure (SMILES)	competitive inhibition of 125I-compound 24 binding (in words) [1]	competitive inhibition of 125I-compound 24 binding (in words) [2]	competitive inhibition of 125I-compound 24 binding (in words) (His-tagged huANT3)	IC50 ([1]; 0.5 nM 125I-compound 24, FIG. 18, read-out: IC50, competitive inhibition of 125I-compound 24 binding) [µM]
Nc1ncnc2c1ncn2[C@@H]1O[C@H](COP(=O)(O)OP(=O)(O)O)[C@@H](O)[C@H]1O [ADP, adenosine diphosphate]	low affinity	low affinity	–	–
CO[C@H](C/C=C\C=C\CC/C=C/C[C@H](C)/C=C/C(=C\C(=O)O)CC(=O)O)/C(C)=C\C=C(/C)C(=O)O [BKA, bongkrekic acid]	effectively displaced labeled compound 24, albeit with a slightly lower affinity than unlabeled compound 24	–	effectively compete with compound 24	–
CC(C)CC(=O)OC1C(OC2CC(C(=O)O)C3CCC45CC(CCC4C3(C)C2)C(C)C5O)OC(CO)C(OS(=O)(=O)O)C1OS(=O)(=O)O (centres unmarked) [compound 5, Dihydroatractyloside]	–	–	–	~3.3
